Experimental data published in patent US20020115640A1, “Farnesyltransferase inhibitors” (priority 2000, published 2002).

Molecular target: T1, farnesyltransferase (Rattus norvegicus, UniProt Q02293+Q04631)
T1 construct: The enzyme can be purified according to Cell, 62: 81-88 (1990), utilizing steps one, two, and three; from tissue; host or cells: rat brain
Assay: Inhibition of farnesyltransferase (3H-farnesyldiphosphate / H-Ras filter assay)
Format: biochemical
Conditions: 3H-farnesyldiphosphate 0.6 μM, H-Ras 5.0 μM, 37° C., 30 minutes; for inhibition at 0.1 µM: test compound at 10^−7 M; for inhibition at 0.01 µM: test compound at 10^−8 M

T1 sequence (Q02293 whole entry, one chain of several): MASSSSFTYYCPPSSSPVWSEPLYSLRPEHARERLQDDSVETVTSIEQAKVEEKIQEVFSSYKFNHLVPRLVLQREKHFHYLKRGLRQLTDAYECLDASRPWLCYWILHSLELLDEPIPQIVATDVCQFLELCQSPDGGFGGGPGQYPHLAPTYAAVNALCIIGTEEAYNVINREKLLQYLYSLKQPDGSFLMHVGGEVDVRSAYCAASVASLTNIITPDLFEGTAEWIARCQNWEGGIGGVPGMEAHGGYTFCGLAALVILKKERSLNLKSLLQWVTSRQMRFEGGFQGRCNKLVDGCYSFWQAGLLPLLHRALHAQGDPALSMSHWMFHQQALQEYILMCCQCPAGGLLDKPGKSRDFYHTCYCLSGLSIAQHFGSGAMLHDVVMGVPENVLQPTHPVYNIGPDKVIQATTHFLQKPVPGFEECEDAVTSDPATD

inhibition at 0.1 µM [%] | inhibition at 0.01 µM [%] | SMILES
> 97 |  | Cn1cncc1C(OCc1ccc(C#N)cc1-c1cccc(Cl)c1)c1ccc(C#N)cc1 (stereo not shown) [Example 34, 3′-chloro-6-(((4-cyanophenyl)(1-methyl-1H-imidazol-5-yl)methoxy)methyl)(1,1′-biphenyl)-3-carbonitrile]
> 92 |  | Cn1cncc1C(OCc1ccc(Cl)cc1-c1ccc2c(c1)OCO2)c1ccc(C#N)cc1 (stereo not shown) [Example 23, 4-(((2-(1,3-benzodioxol-5-yl)-4-chlorobenzyl)oxy)(1-methyl-1H-imidazol-5-yl)methyl)benzonitrile]
 | 96 | Cn1cncc1C(O)(COc1ccc(C#N)cc1-c1ccc2c(c1)OC(F)(F)O2)c1ccc(C#N)cc1 (stereo not shown) [Example 79, 4-(2-(4-cyanophenyl)-2-hydroxy-2-(1-methyl-1H-imidazol-5-yl)ethoxy)-3-(2,2-difluoro-1,3-benzodioxol-5-yl)benzonitrile]
94 |  | COc1cc(-c2cc(Cl)ccc2COC(c2ccc(C#N)cc2)c2cncn2C)cc(OC)c1OC (stereo not shown) [Example 24, 4-(((5-chloro-3′,4′,5′-trimethoxy(1,1′-biphenyl)-2-yl)methoxy)(1-methyl-1H-imidazol-5-yl)methyl)benzonitrile]
 | 96 | Cn1cncc1C(O)(COc1ccc(C#N)cc1-c1cccc(F)c1)c1ccc(C#N)cc1 (stereo not shown) [Example 75, 6-(2-(4-cyanophenyl)-2-hydroxy-2-(1-methyl-1H-imidazol-5-yl)ethoxy)-3′-fluoro-1,1′-biphenyl-3-carbonitrile]
70 |  | Cc1ccc(COC(c2ccc(C#N)cc2)c2cncn2C)c(-c2cccc(Cl)c2)n1 (stereo not shown) [Example 36, 4-(((2-(3-chlorophenyl)-6-methyl-3-pyridinyl)methoxy)(1-methyl-1H-imidazol-5-yl)methyl)benzonitrile]
> 96 |  | Cn1cncc1C(O)(C#Cc1ccc(Cl)cc1-c1cccc(Cl)c1)c1ccc(C#N)cc1 (stereo not shown) [Example 37, 4-(3-(3′,5-dichloro(1,1′-biphenyl)-2-yl)-1-hydroxy-1-(1-methyl-1H-imidazol-5-yl)-2-propynyl)benzonitrile]
94 |  | Cn1cncc1C(OCc1ccc(Cl)cc1-c1cccc(F)c1)c1ccc(C#N)cc1 (stereo not shown) [Example 10, 4-(((5-chloro-3′-fluoro(1,1′-biphenyl)-2-yl)methoxy)(1-methyl-1H-imidazol-5-yl)methyl)benzonitrile]
100 |  | Cn1cncc1C(OCc1c(-c2cccc(Cl)c2)cc(C#N)c(=O)n1C)c1ccc(C#N)c(Cl)c1 (stereo not shown) [Example 54, 6-(((3-chloro-4-cyanophenyl)(1-methyl-1H-imidazol-5-yl)methoxy)methyl)-5-(3-chlorophenyl)-1-methyl-2-oxo-1,2-dihydro-3-pyridinecarbonitrile]
 | 98 | COc1cccc(-c2cc(C#N)ccc2OCC(O)(c2ccc(C#N)cc2)c2cncn2C)c1 (stereo not shown) [Example 57, 6-(2-(4-cyanophenyl)-2-hydroxy-2-(1-methyl-1H-imidazol-5-yl)ethoxy)-3′-methoxy-1,1′-biphenyl-3-carbonitrile]
